Laboratory results taken from PubChem BioAssay AID2060509 (Molecular Pharmacology Branch, DTP, NCI, 2025).

Tested on: 485176-168-R4-J1-PDC spheroids with HUVEC/MSC, viability
Test: Anticancer human tumor 485176-168-R4-J1-PDC patient-derived pancreatic adenocarcinoma cell line growth inhibition [GQUAD]
Settings: for IC50: curve of first compound; for viability, T/C: stronger effect = lower value
In short: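 Tumor cells were grown as complex spheroids with HUVEC endothelial cells and mesenchymal stem cells as stroma. G-quadruplex stabilizers were combined with targeted agents over half-log dilutions from near the clinical Cmax, or from 10 microM.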

[1] = second compound 0.0316 µM, first compound 0.0316 µM
[2] = second compound 0.0316 µM, first compound 0.316 µM
[3] = second compound 0.1 µM, first compound 0.0316 µM
[4] = second compound 0.1 µM, first compound 0.316 µM
[5] = second compound 0.316 µM, first compound 0.0316 µM
[6] = second compound 0.316 µM, first compound 0.316 µM
[7] = second compound 1 µM, first compound 0.0316 µM
[8] = second compound 1 µM, first compound 0.316 µM
[9] = second compound 3.16 µM, first compound 0.0316 µM
[10] = second compound 3.16 µM, first compound 0.316 µM
[11] = second compound 10 µM, first compound 0.0316 µM
[12] = second compound 10 µM, first compound 0.316 µM
[13] = second compound 0.0316 µM, first compound 0.000999 µM
[14] = second compound 0.0316 µM, first compound 0.00316 µM
[15] = second compound 0.0316 µM, first compound 0.00999 µM
[16] = second compound 0.0316 µM, first compound 0.0999 µM
[17] = second compound 0.1 µM, first compound 0.000999 µM
[18] = second compound 0.1 µM, first compound 0.00316 µM
[19] = second compound 0.1 µM, first compound 0.00999 µM
[20] = second compound 0.1 µM, first compound 0.0999 µM
[21] = second compound 0.316 µM, first compound 0.000999 µM
[22] = second compound 0.316 µM, first compound 0.00316 µM
[23] = second compound 0.316 µM, first compound 0.00999 µM
[24] = second compound 0.316 µM, first compound 0.0999 µM
[25] = second compound 1 µM, first compound 0.000999 µM
[26] = second compound 1 µM, first compound 0.00316 µM
[27] = second compound 1 µM, first compound 0.00999 µM
[28] = second compound 1 µM, first compound 0.0999 µM
[29] = second compound 3.16 µM, first compound 0.000999 µM
[30] = second compound 3.16 µM, first compound 0.00316 µM
[31] = second compound 3.16 µM, first compound 0.00999 µM
[32] = second compound 3.16 µM, first compound 0.0999 µM
[33] = second compound 10 µM, first compound 0.000999 µM
[34] = second compound 10 µM, first compound 0.00316 µM
[35] = second compound 10 µM, first compound 0.00999 µM
[36] = second compound 10 µM, first compound 0.0999 µM
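Note: spheroids exposed to compounds for seven days before readout.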
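Throughout, for viability, T/C: percent viability relative to DMSO vehicle control wells as 100%.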

CC(=O)O[C@H]1C(=O)[C@@]2(C)[C@H]([C@H](OC(=O)c3ccccc3)[C@]3(O)C[C@H](OC(=O)[C@H](O)[C@@H](NC(=O)c4ccccc4)c4ccccc4)C(C)=C1C3(C)C)[C@]1(OC(C)=O)CO[C@@H]1C[C@@H]2O + CN(C)c1ccc(Nc2c3ccc(NC(=O)CCN4CCCC4)cc3nc3cc(NC(=O)CCN4CCCC4)ccc23)cc1
IC50 (second compound 0.0316 µM): < 31.6 nM
IC50 (second compound 0.1 µM): < 31.6 nM
IC50 (second compound 0.316 µM): < 31.6 nM
IC50 (second compound 1 µM): < 31.6 nM
IC50 (second compound 3.16 µM): < 31.6 nM
IC50 (second compound 10 µM): < 31.6 nM
viability, T/C [1]: 34.3%
viability, T/C (second compound 0.0316 µM, first compound 0.1 µM): 14.3%
viability, T/C [2]: 14.3%
viability, T/C (second compound 0.0316 µM, first compound 1 µM): 11.6%
viability, T/C (second compound 0.0316 µM, first compound 3.16 µM): 11%
viability, T/C (second compound 0.0316 µM, first compound 10 µM): 14.1%
viability, T/C [3]: 31.9%
viability, T/C (second compound 0.1 µM, first compound 0.1 µM): 15%
viability, T/C [4]: 14.1%
viability, T/C (second compound 0.1 µM, first compound 1 µM): 14.9%
viability, T/C (second compound 0.1 µM, first compound 3.16 µM): 12%
viability, T/C (second compound 0.1 µM, first compound 10 µM): 11.3%
viability, T/C [5]: 33.3%
viability, T/C (second compound 0.316 µM, first compound 0.1 µM): 15.6%
viability, T/C [6]: 12.9%
viability, T/C (second compound 0.316 µM, first compound 1 µM): 13.7%
viability, T/C (second compound 0.316 µM, first compound 3.16 µM): 11.5%
viability, T/C (second compound 0.316 µM, first compound 10 µM): 10.9%
viability, T/C [7]: 31%
viability, T/C (second compound 1 µM, first compound 0.1 µM): 13.3%
viability, T/C [8]: 12.2%
viability, T/C (second compound 1 µM, first compound 1 µM): 14%
viability, T/C (second compound 1 µM, first compound 3.16 µM): 11.5%
viability, T/C (second compound 1 µM, first compound 10 µM): 9.76%
viability, T/C [9]: 36.9%
viability, T/C (second compound 3.16 µM, first compound 0.1 µM): 11.3%
viability, T/C [10]: 16.1%
viability, T/C (second compound 3.16 µM, first compound 1 µM): 13.6%
viability, T/C (second compound 3.16 µM, first compound 3.16 µM): 12.5%
viability, T/C (second compound 3.16 µM, first compound 10 µM): 11.3%
viability, T/C [11]: 28.3%
viability, T/C (second compound 10 µM, first compound 0.1 µM): 12.4%
viability, T/C [12]: 13.1%
viability, T/C (second compound 10 µM, first compound 1 µM): 11.5%
viability, T/C (second compound 10 µM, first compound 3.16 µM): 10.6%
viability, T/C (second compound 10 µM, first compound 10 µM): 12%

Cn1ncnc1[C@H]1c2n[nH]c(=O)c3cc(F)cc(c23)N[C@@H]1c1ccc(F)cc1 + Cc1cnc(CNC(=O)c2c(=O)c3ccc(N4CCCN(C)CC4)nc3n3c2sc2ccccc23)cn1
IC50 (second compound 0.0316 µM): > 316 nM
IC50 (second compound 0.1 µM): > 316 nM
IC50 (second compound 0.316 µM): > 316 nM
IC50 (second compound 1 µM): > 316 nM
IC50 (second compound 3.16 µM): 7.33 nM
IC50 (second compound 10 µM): < 0.999 nM
viability, T/C [13]: 90.2%
viability, T/C [14]: 79%
viability, T/C [15]: 91.5%
viability, T/C [1]: 90.2%
viability, T/C [16]: 91.4%
viability, T/C [2]: 80.8%
viability, T/C [17]: 74.4%
viability, T/C [18]: 91.7%
viability, T/C [19]: 75.8%
viability, T/C [3]: 77.3%
viability, T/C [20]: 78.9%
viability, T/C [4]: 69.9%
viability, T/C [21]: 63.6%
viability, T/C [22]: 70.5%
viability, T/C [23]: 64.8%
viability, T/C [5]: 62.7%
viability, T/C [24]: 56.2%
viability, T/C [6]: 68.7%
viability, T/C [25]: 49.3%
viability, T/C [26]: 61.2%
viability, T/C [27]: 74%
viability, T/C [7]: 51.8%
viability, T/C [28]: 52.8%
viability, T/C [8]: 48.5%
viability, T/C [29]: 45.4%
viability, T/C [30]: 63.9%
viability, T/C [31]: 48.3%
viability, T/C [9]: 45.3%
viability, T/C [32]: 45.4%
viability, T/C [10]: 40%
viability, T/C [33]: 42.8%
viability, T/C [34]: 48.4%
viability, T/C [35]: 39.2%
viability, T/C [11]: 34.8%
viability, T/C [36]: 38.1%
viability, T/C [12]: 33.5%

Cc1[nH]c2ccccc2c1CCNCc1ccc(/C=C/C(=O)NO)cc1 + CN(C)c1ccc(Nc2c3ccc(NC(=O)CCN4CCCC4)cc3nc3cc(NC(=O)CCN4CCCC4)ccc23)cc1
IC50 (second compound 0.0316 µM): 116 nM
IC50 (second compound 0.1 µM): 132 nM
IC50 (second compound 0.316 µM): 126 nM
IC50 (second compound 1 µM): 136 nM
IC50 (second compound 3.16 µM): 88.3 nM
IC50 (second compound 10 µM): 120 nM
viability, T/C [13]: 102%
viability, T/C [14]: 89.9%
viability, T/C [15]: 82.7%
viability, T/C [1]: 69.4%
viability, T/C [16]: 64.6%
viability, T/C [2]: 12.9%
viability, T/C [17]: 103%
viability, T/C [18]: 87.5%
viability, T/C [19]: 89.2%
viability, T/C [3]: 86.1%
viability, T/C [20]: 61.9%
viability, T/C [4]: 12.1%
viability, T/C [21]: 80.1%
viability, T/C [22]: 96.7%
viability, T/C [23]: 82.9%
viability, T/C [5]: 82%
viability, T/C [24]: 59.4%
viability, T/C [6]: 11.8%
viability, T/C [25]: 97.3%
viability, T/C [26]: 96.7%
viability, T/C [27]: 83%
viability, T/C [7]: 64.2%
viability, T/C [28]: 76.5%
viability, T/C [8]: 10%
viability, T/C [29]: 113%
viability, T/C [30]: 97.9%
viability, T/C [31]: 86%
viability, T/C [9]: 74.5%
viability, T/C [32]: 47.9%
viability, T/C [10]: 14.5%
viability, T/C [33]: 104%
viability, T/C [34]: 83.5%
viability, T/C [35]: 69.3%
viability, T/C [11]: 90.7%
viability, T/C [36]: 58.3%
viability, T/C [12]: 5.87%
